Test results published in paper PMC7659177 (ACS omega, 2020).

Target: IP3R1 (HEK-IP3R1 cells) (Rattus norvegicus, UniProt P29994)
Assay: Ca2+ release from stores of permeabilized cells, Mag-fluo […]
Type: cell-based

Chain of IP3R1 (HEK-IP3R1 cells) (P29994 whole entry): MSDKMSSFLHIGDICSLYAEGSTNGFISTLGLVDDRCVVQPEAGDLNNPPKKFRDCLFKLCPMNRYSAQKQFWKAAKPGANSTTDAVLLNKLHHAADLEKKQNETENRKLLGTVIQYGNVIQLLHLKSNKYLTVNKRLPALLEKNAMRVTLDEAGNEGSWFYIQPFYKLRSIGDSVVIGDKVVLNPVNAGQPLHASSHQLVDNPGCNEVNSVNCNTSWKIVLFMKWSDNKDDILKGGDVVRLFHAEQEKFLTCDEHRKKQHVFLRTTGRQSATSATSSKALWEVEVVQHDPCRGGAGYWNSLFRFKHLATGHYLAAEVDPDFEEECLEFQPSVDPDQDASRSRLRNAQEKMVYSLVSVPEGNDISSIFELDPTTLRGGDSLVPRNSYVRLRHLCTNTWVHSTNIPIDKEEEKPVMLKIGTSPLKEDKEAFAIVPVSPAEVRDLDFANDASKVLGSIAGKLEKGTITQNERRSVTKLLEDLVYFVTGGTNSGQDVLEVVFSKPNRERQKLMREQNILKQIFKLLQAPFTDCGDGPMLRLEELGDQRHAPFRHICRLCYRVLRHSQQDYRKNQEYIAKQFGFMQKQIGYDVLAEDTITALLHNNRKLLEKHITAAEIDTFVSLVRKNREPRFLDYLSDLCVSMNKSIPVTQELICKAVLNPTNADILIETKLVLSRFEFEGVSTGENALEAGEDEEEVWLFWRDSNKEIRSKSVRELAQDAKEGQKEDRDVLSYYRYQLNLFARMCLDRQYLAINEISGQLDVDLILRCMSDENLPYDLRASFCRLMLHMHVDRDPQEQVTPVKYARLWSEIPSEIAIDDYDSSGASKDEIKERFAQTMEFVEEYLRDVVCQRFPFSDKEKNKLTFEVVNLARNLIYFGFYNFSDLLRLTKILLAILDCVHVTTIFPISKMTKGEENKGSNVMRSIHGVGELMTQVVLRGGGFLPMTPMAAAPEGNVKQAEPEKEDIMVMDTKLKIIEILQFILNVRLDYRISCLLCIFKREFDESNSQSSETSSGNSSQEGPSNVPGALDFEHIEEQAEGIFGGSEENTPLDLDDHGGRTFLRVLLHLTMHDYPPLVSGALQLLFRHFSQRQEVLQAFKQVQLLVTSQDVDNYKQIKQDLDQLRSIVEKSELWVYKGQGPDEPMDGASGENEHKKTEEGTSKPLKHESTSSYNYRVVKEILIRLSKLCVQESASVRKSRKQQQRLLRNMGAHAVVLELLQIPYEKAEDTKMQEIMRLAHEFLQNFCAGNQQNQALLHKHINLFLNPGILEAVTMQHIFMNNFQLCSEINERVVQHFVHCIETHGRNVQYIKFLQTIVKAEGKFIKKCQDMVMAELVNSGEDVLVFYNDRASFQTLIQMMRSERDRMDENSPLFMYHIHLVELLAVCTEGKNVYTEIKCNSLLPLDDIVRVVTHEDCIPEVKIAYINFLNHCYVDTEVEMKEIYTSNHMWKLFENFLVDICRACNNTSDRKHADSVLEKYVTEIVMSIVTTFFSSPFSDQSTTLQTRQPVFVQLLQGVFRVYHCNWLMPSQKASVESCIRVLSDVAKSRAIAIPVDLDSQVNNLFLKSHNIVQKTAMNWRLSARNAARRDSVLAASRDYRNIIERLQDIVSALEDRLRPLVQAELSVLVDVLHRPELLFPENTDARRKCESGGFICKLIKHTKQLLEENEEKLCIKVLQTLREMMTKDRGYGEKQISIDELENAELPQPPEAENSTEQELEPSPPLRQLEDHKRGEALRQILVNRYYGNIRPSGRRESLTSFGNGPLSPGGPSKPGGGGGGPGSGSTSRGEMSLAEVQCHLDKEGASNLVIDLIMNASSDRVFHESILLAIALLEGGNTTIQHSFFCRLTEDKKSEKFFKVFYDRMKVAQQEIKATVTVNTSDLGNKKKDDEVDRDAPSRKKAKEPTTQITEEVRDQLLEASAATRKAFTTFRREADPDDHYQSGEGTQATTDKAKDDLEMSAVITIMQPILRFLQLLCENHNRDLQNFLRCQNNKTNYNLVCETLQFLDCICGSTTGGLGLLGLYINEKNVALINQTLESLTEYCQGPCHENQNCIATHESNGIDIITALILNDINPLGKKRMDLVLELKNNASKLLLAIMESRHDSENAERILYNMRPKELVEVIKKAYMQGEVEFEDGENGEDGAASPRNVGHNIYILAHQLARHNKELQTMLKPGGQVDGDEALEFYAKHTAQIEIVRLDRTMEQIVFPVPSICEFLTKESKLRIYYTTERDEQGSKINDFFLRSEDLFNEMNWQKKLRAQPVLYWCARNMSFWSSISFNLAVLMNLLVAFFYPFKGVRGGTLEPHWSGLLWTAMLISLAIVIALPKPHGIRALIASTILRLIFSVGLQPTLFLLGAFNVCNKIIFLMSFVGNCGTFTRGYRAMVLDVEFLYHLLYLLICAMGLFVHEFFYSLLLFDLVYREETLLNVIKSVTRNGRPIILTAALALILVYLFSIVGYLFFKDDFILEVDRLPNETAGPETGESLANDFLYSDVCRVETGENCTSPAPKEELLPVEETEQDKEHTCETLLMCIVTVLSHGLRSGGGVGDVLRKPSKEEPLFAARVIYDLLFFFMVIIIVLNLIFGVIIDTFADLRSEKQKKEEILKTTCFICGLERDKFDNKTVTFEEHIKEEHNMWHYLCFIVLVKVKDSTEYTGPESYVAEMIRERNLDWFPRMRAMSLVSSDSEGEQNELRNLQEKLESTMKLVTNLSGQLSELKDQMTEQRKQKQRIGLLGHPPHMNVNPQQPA

## Nc1ncnc2c1ncn2[C@@H]1O[C@H](CO)[C@@H](O[C@H]2[C@H](O)[C@H](O)[C@@H](OP(=O)(O)O)[C@H](OP(=O)(O)O)[C@H]2O)[C@H]1OP(=O)(O)O [compound 5, 3' -O-(1″ -D-chiro-Inosityl)adenosine 2’, 3″, 4″ -trisphosphate]
  EC50: 22 nM
